Each structure is given as a SMILES string.

Chain of PD-1/PD-L1 (Q9NZQ7 19-238): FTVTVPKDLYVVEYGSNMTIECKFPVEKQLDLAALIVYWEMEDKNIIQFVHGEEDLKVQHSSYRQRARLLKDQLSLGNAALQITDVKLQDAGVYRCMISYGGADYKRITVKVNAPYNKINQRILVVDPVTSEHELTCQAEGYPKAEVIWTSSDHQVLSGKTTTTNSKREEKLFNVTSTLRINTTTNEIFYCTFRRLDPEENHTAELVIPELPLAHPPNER

The first experiment concerns the target PD-1/PD-L1 (Homo sapiens (Human), UniProt Q9NZQ7). In words: PD-1/PD-L1 Binding Assay (Alphascreen). The conditions noted are these: numeric values. Put shortly: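 PD-1/PD-L1 binding detected by anti-6×His acceptor and streptavidin donor beads after 120 min in the dark at 25 °C. Beforehand, the two proteins were incubated 15 min at 25 °C with inhibitor at 0.015–300 nM (1% DMSO). IC50 comes from a log concentration–response curve.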
For `Cc1c(Nc2nccc3cc(CNCC(=O)O)cnc23)cccc1-c1cccc(-c2nc3cc(CN4CCC[C@H]4C(=O)O)c(OC(F)F)cc3o2)c1C` [Example 172, ((2-(3′-((3-(((carboxymethyl)amino)methyl)-1,7-naphthyridin-8-yl)amino)-2,2′-dimethyl-[1,1′-biphenyl]-3-yl)-6-(difluoromethoxy)benzo[d]oxazol-5-yl)methyl)-L-proline], the half-maximal inhibitory concentration (IC50) was 0.3 nM.
On the same count and under the same terms, to `Cc1c(-c2nc3cc(CN4CC5COCC5C4)c(OC(F)F)cc3o2)cccc1-c1cccc(-c2nc3cc(CN4CCC[C@H]4C(=O)O)c(OC(F)F)cc3o2)c1C` (stereo partly drawn) [Example 55, ((6-(difluoromethoxy)-2-(3′-(6-(difluoromethoxy)-5-((tetrahydro-1H-furo[3,4-c]pyrrol-5(3H)-yl)methyl)benzo[d]oxazol-2-yl)-2,2′-dimethyl-[1,1′-biphenyl]-3-yl)benzo[d]oxazol-5-yl)methyl)-L-proline] belongs 0.57 nM; to `Cc1c(-c2nc3cc(CN4CC5CC(=O)CC4C5)c(OC(F)F)cc3o2)cccc1-c1cccc(-c2nc3cc(CN4CCC[C@H]4C(=O)O)c(OC(F)F)cc3o2)c1C` (stereo partly drawn) [Example 75, ((6-(difluoromethoxy)-2-(3′-(6-(difluoromethoxy)-5-((3-oxo-6-azabicyclo [3.2.1]octan-6-yl)methyl)benzo[d]oxazol-2-yl)-2,2′-dimethyl-[1,1′-biphenyl]-3-yl)benzo[d]oxazol-5-yl)methyl)-L-proline], 10 nM; to `Cc1c(-c2nc3ccc(CN4CC(C)(C)C4)cc3o2)cccc1-c1cccc(-c2nc3cc(CN4CCC[C@H]4C(=O)O)c(OC(F)F)cc3o2)c1C` [Example 109, ((6-(difluoromethoxy)-2-(3′-(6-((3,3-dimethylazetidin-1-yl)methyl)benzo[d]oxazol-2-yl)-2,2′-dimethyl-[1,1′-biphenyl]-3-yl)benzo[d]oxazol-5-yl)methyl)-L-proline], 1.6 nM.
The same measure, in the same setting: as for `Cc1c(-c2ccc(CN3CCCC3)nc2)cccc1-c1cccc(-c2nc3cc(CN4CCC[C@H]4C(=O)O)c(OC(F)F)cc3o2)c1C` [Example 263, ((6-(difluoromethoxy)-2-(2,2′-dimethyl-3′-(6-(pyrrolidin-1-ylmethyl)pyridin-3-yl)-[1,1′-biphenyl]-3-yl)benzo[d]oxazol-5-yl)methyl)-L-proline], the figure is 0.98 nM.

The experiment is the same for the next values; noted with them: range symbols.
As for `COc1nc(-c2cccc(-c3cccc(-c4nc5cc(CN6CCC[C@H]6C(=O)O)c(OC(F)F)cc5o4)c3C)c2Cl)cnc1CNCC1CCC(=O)N1` (stereo partly drawn) [Example 287, ((2-(2′-chloro-3′-(6-methoxy-5-((((5-oxopyrrolidin-2-yl)methyl)amino)methyl)pyrazin-2-yl)-2-methyl-[1,1′-biphenyl]-3-yl)-6-(difluoromethoxy)benzo[d]oxazol-5-yl)methyl)-L-proline], the half-maximal inhibitory concentration (IC50) was 0.1 to 5 nM.
In turn, `Cc1c(-c2nc3cc(CN4CCC[C@H]4C(=O)O)c(OC(F)F)cc3o2)cccc1-c1cccc(N2CCC(CN3CCCC3)CC2)c1C` [Example 309, ((6-(difluoromethoxy)-2-(2,2′-dimethyl-3′-(4-(pyrrolidin-1-ylmethyl)piperidin-1-yl)-[1,1′-biphenyl]-3-yl)benzo[d]oxazol-5-yl)methyl)-L-proline] yielded an IC50 of 0.1 to 5 nM.
As to `Cc1c(-c2nc3c(o2)CN(C)CC3)cccc1-c1cccc(-c2nc3cc(CN4CCC[C@H]4C(=O)O)c(OC(F)F)cc3o2)c1C` [Example 188, ((6-(difluoromethoxy)-2-(2,2′-dimethyl-3′-(5-methyl-4,5,6,7-tetrahydrooxazolo[5,4-c]pyridin-2-yl)-[1,1′-biphenyl]-3-yl)benzo[d]oxazol-5-yl)methyl)-L-proline], the IC50 lay within 0.1 to 5 nM.
`Cc1c(-c2nc3cc(CN4CCC[C@H]4C(=O)O)c(OC(F)F)cc3o2)cccc1-c1cccc(-c2nc3cc(CN4CCCC4)c(F)c(F)c3n2C)c1C` [Example 298, ((2-(3′-(6,7-difluoro-1-methyl-5-(pyrrolidin-1-ylmethyl)-1H-benzo[d]imidazol-2-yl)-2,2′-dimethyl-[1,1′-biphenyl]-3-yl)-6-(difluoromethoxy)benzo[d]oxazol-5-yl)methyl)-L-proline] yielded an IC50 of 5 to 50 nM.
`CNCc1cc2nc(-c3cccc(-c4cccc(-c5nc6cc(CN7CCC[C@H]7C(=O)O)c(OC(F)F)cc6o5)c4C)c3C)oc2cc1OCc1cccc(S(C)(=O)=O)c1` [Example 124, ((6-(difluoromethoxy)-2-(2,2′-dimethyl-3′-(5-((methylamino)methyl)-6-((3-(methylsulfonyl)benzyl)oxy)benzo[d]oxazol-2-yl)-[1,1′-biphenyl]-3-yl)benzo[d]oxazol-5-yl)methyl)-L-proline] registered a 50% inhibitory concentration (IC50) of 0.1 to 5 nM.
On the same count and under the same terms, as for `Cc1c(-c2nc3cc(CN4CCCC4(C)C)ccc3o2)cccc1-c1cccc(-c2nc3cc(CN4CCC[C@H]4C(=O)O)c(OC(F)F)cc3o2)c1C` [Example 311, ((6-(difluoromethoxy)-2-(3′-(5-((2,2-dimethylpyrrolidin-1-yl)methyl)benzo[d]oxazol-2-yl)-2,2′-dimethyl-[1,1′-biphenyl]-3-yl)benzo[d]oxazol-5-yl)methyl)-L-proline], the figure is 0.1 to 5 nM; as for `CNCC1CN(Cc2cc3nc(-c4cccc(-c5cccc(-c6nc7cc(CN8CCC[C@H]8C(=O)O)c(OC(F)F)cc7o6)c5C)c4C)oc3cc2OC(F)F)C1` [Example 45, ((6-(difluoromethoxy)-2-(3′-(6-(difluoromethoxy)-5-((3-((methylamino)methyl)azetidin-1-yl)methyl)benzo[d]oxazol-2-yl)-2,2′-dimethyl-[1,1′-biphenyl]-3-yl)benzo[d]oxazol-5-yl)methyl)-L-proline], 0.1 to 5 nM; as for `Cc1c(-c2nc3c(o2)CCN(CCCO)C3)cccc1-c1cccc(-c2nc3cc(CN4CCC[C@H]4C(=O)O)c(OC(F)F)cc3o2)c1C` [Example 199, ((6-(difluoromethoxy)-2-(3′-(5-(3-hydroxypropyl)-4,5,6,7-tetrahydrooxazolo[4,5-c]pyridin-2-yl)-2,2′-dimethyl-[1,1′-biphenyl]-3-yl)benzo[d]oxazol-5-yl)methyl)proline], 5 to 50 nM.
`Cc1c(-c2nc3cc(CN4CC5(CCC5)C4)c(OC(F)F)cc3o2)cccc1-c1cccc(-c2nc3cc(CN4CCC[C@H]4C(=O)O)c(OC(F)F)cc3o2)c1C` [Example 48, ((2-(3′-(5-((2-azaspiro [3.3]heptan-2-yl)methyl)-6-(difluoromethoxy)benzo[d]oxazol-2-yl)-2,2′-dimethyl-[1,1′-biphenyl]-3-yl)-6-(difluoromethoxy)benzo[d]oxazol-5-yl)methyl)-L-proline] returned a concentration for half-maximal inhibition (IC50) of 0.1 to 5 nM.
Still for that read-out and setting: to `COc1nc(-c2cccc(-c3cccc(-c4nc5cc(CN6CCC[C@H]6C(=O)O)c(OC(F)F)cc5o4)c3C)c2C)ccc1CN1CCC(C(F)F)C1` (stereo partly drawn) [Example 275, ((6-(difluoromethoxy)-2-(3′-(5-((3-(difluoromethyl)pyrrolidin-1-yl)methyl)-6-methoxypyridin-2-yl)-2,2′-dimethyl-[1,1′-biphenyl]-3-yl)benzo[d]oxazol-5-yl)methyl)-L-proline] belongs 5 to 50 nM; to `Cc1c(-c2nc3cc(CN4CCC[C@H]4C(=O)O)c(OC(F)F)cc3o2)cccc1-c1cccc(-c2ccc(CN3CCCC3)cc2F)c1Cl` [Example 223, ((2-(2′-chloro-2″-fluoro-2-methyl-4″- (pyrrolidin-1-ylmethyl)-[1,1′:3′,1″-terphenyl]-3-yl)-6-(difluoromethoxy)benzo[d]oxazol-5-yl)methyl)-L-proline], 0.1 to 5 nM.

Usually IC50 stands for the concentration that inhibits the measured activity by half. Read a low IC50 as higher potency.

The values are drawn from patent US12187713B2, “Immunomodulators, compositions and methods thereof” (Betta Pharmaceuticals Co., Ltd, priority 2019, dated 2025).
